Reference: ChEMBL document CHEMBL6127035, “Novel pyridazinone derivatives bind to KSRP: Synthesis, anti-tumor biological evaluations and modelling insights” (Eur J Med Chem, 2024)
Activity calls are given as the source filed them. No cut-off for these calls is given here.

Legend:
MDA-MB-231 = assay: Antiproliferative activity against human MDA-MB-231 cells assessed as reduction in cell viability incubated for 2 days by MTT assay; type: functional, cell-based; conditions: MDA-MB-231, 48 h
NCI-H460 = assay: Antiproliferative activity against human NCI-H460 cells assessed as reduction in cell viability incubated for 2 days by MTT assay; type: functional, cell-based; conditions: NCI-H460, 48 h
KB = assay: Antiproliferative activity against human KB cells assessed as reduction in cell viability incubated for 2 days by MTT assay; type: functional, cell-based; conditions: 48 h
HCT-116 = assay: Antiproliferative activity against human HCT-116 cells assessed as reduction in cell viability incubated for 2 days by MTT assay; type: functional, cell-based; conditions: HCT-116, 48 h
U-87 MG = assay: Antiproliferative activity against human U-87 MG cells assessed as reduction in cell viability incubated for 2 days by MTT assay; type: functional, cell-based, U-87MG ATCC; conditions: 48 h
MIA PaCa-2 = assay: Antiproliferative activity against human MIA PaCa-2 cells assessed as reduction in cell viability incubated for 2 days by MTT assay; type: functional, cell-based; conditions: MIA PaCa-2, 48 h
MCF7 [1] = assay: Inhibition of cell migration in human MCF7 cells assessed as reduction in wound healing index at 0.625 uM measured after 72 hrs by scratch assay; type: functional, cell-based
MCF7 [2] = assay: Induction of apoptosis in human MCF7 cells assessed as early apoptotic cells at 0.62 uM incubated for 48 hrs by Annexin V-FITC/PI staining based flow cytometric analysis (reference value: 6.33 %); type: functional
MCF7 [3] = assay: Induction of apoptosis in human MCF7 cells assessed as late apoptotic cells at 0.62 uM incubated for 48 hrs by Annexin V-FITC/PI staining based flow cytometric analysis (reference value: 5.31 %); type: functional
MCF7 [4] = assay: Induction of apoptosis in human MCF7 cells assessed as viable cells at 1.25 uM incubated for 48 hrs by Annexin V-FITC/PI staining based flow cytometric analysis (reference value: 87.2 %); type: functional; conditions: read-out: Activity
MCF7 [5] = assay: Induction of apoptosis in human MCF7 cells assessed as early apoptotic cells at 1.25 uM incubated for 48 hrs by Annexin V-FITC/PI staining based flow cytometric analysis (reference value: 6.33 %); type: functional
MCF7 [6] = assay: Induction of apoptosis in human MCF7 cells assessed as necrotic cells at 1.25 uM incubated for 48 hrs by Annexin V-FITC/PI staining based flow cytometric analysis (reference value: 1.16 %); type: functional
MCF7 [7] = assay: Induction of apoptosis in human MCF7 cells assessed as viable cells at 2.5 uM incubated for 48 hrs by Annexin V-FITC/PI staining based flow cytometric analysis (reference value: 87.2 %); type: functional; conditions: read-out: Activity
MCF7 [8] = assay: Induction of apoptosis in human MCF7 cells assessed as early apoptotic cells at 2.5 uM incubated for 48 hrs by Annexin V-FITC/PI staining based flow cytometric analysis (reference value: 6.33 %); type: functional
MCF7 [9] = assay: Induction of cell cycle arrest in human MCF7 cells assessed as accumulation of cells at G2/M phase cells at 5 uM incubated for 24 hrs by PI staining based flow cytometric analysis (reference value: 10.2 %); type: functional
MCF7 [10] = assay: Induction of cell cycle arrest in human MCF7 cells assessed as decrease in S phase cells at 5 uM incubated for 24 hrs by PI staining based flow cytometric analysis; type: functional
MCF7 [11] = assay: Induction of ROS accumulation in human MCF7 cells assessed as increase in green fluorescence at 5 uM incubated for 24 hrs by DCFH-DA staining based automated microscopic immunofluorescence analysis; type: functional, cell-based
MCF7 [12] = assay: Induction of morphological changes in human MCF7 cells assessed as cell membrane blebbing at 10 uM measured after 6 hrs by bright field microscopic; type: functional, cell-based
MCF7 [13] = assay: Induction of DNA double-strand breaks in human MCF7 cells assessed as enlarged nucleus at 10 uM incubated for 24 hrs by Hoechst 33342 staining based fluorescence microscopic analysis; type: functional, cell-based
MCF7 [14] = assay: Induction of DNA double-strand breaks in human MCF7 cells assessed as appearance of nuclear fragments at 10 uM incubated for 24 hrs by Hoechst 33342 staining based fluorescence microscopic analysis; type: functional, cell-based
[15] = Acute toxicity in BALB/c nu/nu mouse assessed as survival rate at 90 mg/kg, ip administered for 7 days relative to control; type: organism-based; conditions: in vivo, time 7 day
[16] = Acute toxicity in BALB/c nu/nu mouse assessed as survival rate at 100 mg/kg, ip administered for 7 days relative to control; type: organism-based; conditions: in vivo, time 7 day
[17] = Acute toxicity in BALB/c nu/nu mouse assessed as survival rate at 120 mg/kg, ip administered for 7 days relative to control; type: organism-based; conditions: in vivo, time 7 day
[18] = Toxicity in BALB/C-nu/nu mouse xenografted with human MCF7 cells assessed as reduction in body weight at 30 mg/kg, iv administered every other day for 15 days relative to control; type: organism-based; design: scale not given: the % may be the effect or the level left; conditions: in vivo, 360 h, time 15 day
MCF7 [19] = assay: Antitumor activity against human MCF7 cells xenografted in BALB/C-nu/nu mouse model assessed as decrease in tumor weight at 20 mg/kg, iv administered every other day for 15 days relative to control; type: functional; design: scale not given: the % may be the effect or the level left; conditions: time 15 day
MCF7 [20] = assay: Antitumor activity against human MCF7 cells xenografted in BALB/C-nu/nu mouse model assessed as decrease in tumor weight at 30 mg/kg, iv administered every other day for 15 days relative to control; type: functional; design: scale not given: the % may be the effect or the level left; conditions: time 15 day
MCF7 [21] = assay: Antitumor activity against human MCF7 cells xenografted in BALB/C-nu/nu mouse model assessed as increase in gamma-H2AX expression at 20 to 30 mg/kg, iv administered every other day for 15 days by immunohistochemical analysis; type: functional, organism-based; conditions: dose 20-30 mg/kg, time 15.0 day
[22] = Toxicity in BALB/C-nu/nu mouse xenografted with human MCF7 cells assessed as histopathological lesions in spleen at 20 to 30 mg/kg, iv administered every other day for 15 days by H and E staining based analysis; type: organism-based; conditions: in vivo, 360 h, dose 20-30 mg/kg, time 15 day
[23] = Toxicity in BALB/C-nu/nu mouse xenografted with human MCF7 cells assessed as histopathological lesions in kidney at 20 to 30 mg/kg, iv administered every other day for 15 days by H and E staining based analysis; type: organism-based; conditions: in vivo, 360 h, dose 20-30 mg/kg, time 15 day

## CN(CCO)S(=O)(=O)c1ccc(-n2ncc(Cl)c(Cl)c2=O)cc1
MDA-MB-231
  IC50: 8350 nM
NCI-H460
  IC50: 1020 nM
KB
  IC50: 380 nM
HCT-116
  IC50: 780 nM
U-87 MG
  IC50: 400 nM
MIA PaCa-2
  IC50: 360 nM
MCF7 [1]
  inhibition: Active
MCF7 [2]
  Activity: 7.62%
MCF7 [3]
  Activity: 6.63%
MCF7 [4]
  viability at 1.25 µM: 75.1%
MCF7 [5]
  Activity: 10.2%
MCF7 [6]
  Activity: 1.26%
MCF7 [7]
  viability at 2.5 µM: 39.5%
MCF7 [8]
  Activity: 26.7%
MCF7 [9]
  Activity: 19.9%
MCF7 [10]
  Activity: Active
MCF7 [11]
  Activity: Active
MCF7 [12]
  Activity: Active
MCF7 [13]
  Activity: Active
MCF7 [14]
  Activity: Active
[15]
  survival at 168 h: 100%
[16]
  survival at 168 h: 80%
[17]
  survival at 168 h: 0%
[18]
  Activity: 20%
MCF7 [19]
  Activity: 44.6%
MCF7 [20]
  Activity: 74.2%
MCF7 [21]
  Activity: Active
[22]
  Activity: Non-Toxic
[23]
  Activity: Non-Toxic
